Experimental data published in US8318769B2, “Substituted sulfonamide compounds” (Gruenethal GmbH, priority 2008, dated 2012).

Tests used:
[1] = molecular target: T1, human bradykinin 1 receptor (B1R) (Homo sapiens, UniProt P46663); experiment: FLIPR Ca2+ assay, B1R antagonism, human; type: cell-based; conditions: 10 μM test substance; CHO K1 cells with human B1R gene (hB1R cells); Lys-Des-Arg9-bradykinin at EC80; % inhibition compared with the maximum achievable inhibition; read-out: B1R antagonism, human [10 μM] % inhibition
T1 construct: expressed in transfected cells
T1 sequence (P46663 1-353): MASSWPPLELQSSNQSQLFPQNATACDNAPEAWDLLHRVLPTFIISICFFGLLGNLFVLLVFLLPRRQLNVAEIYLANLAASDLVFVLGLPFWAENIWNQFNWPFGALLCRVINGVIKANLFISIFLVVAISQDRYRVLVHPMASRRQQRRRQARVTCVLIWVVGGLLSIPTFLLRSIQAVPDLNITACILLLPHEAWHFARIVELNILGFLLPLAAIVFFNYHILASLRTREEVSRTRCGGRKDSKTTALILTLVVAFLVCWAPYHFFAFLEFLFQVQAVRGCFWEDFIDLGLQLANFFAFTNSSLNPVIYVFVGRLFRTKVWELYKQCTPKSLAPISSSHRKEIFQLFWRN
Summary of the method: (§1)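 Antagonism is given as % of maximum achievable suppression of agonist-evoked Ca2+ influx, measured by Fluo-4 peak fluorescence in FLIPR. Stable hB1R or rB1R CHO K1 lines received 10 μM compound for 10-20 min before EC80 Lys-Des-Arg9-bradykinin (human) or Des-Arg9-bradykinin (rat).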

[2] = molecular target: T2, bradykinin 1 receptor (B1R) of the rat (Rattus norvegicus, UniProt P97583); experiment: FLIPR Ca2+ assay, B1R antagonism, rat; type: cell-based; conditions: CHO-K1, 10 μM test substance; CHO K1 cells with rat B1R gene (rB1R cells); Des-Arg9-bradykinin at EC80; % inhibition compared with the maximum achievable inhibition; read-out: B1R antagonism, rat [10 μM] % inhibition
T2 construct: expressed in transfected cells
T2 sequence (P97583 1-337): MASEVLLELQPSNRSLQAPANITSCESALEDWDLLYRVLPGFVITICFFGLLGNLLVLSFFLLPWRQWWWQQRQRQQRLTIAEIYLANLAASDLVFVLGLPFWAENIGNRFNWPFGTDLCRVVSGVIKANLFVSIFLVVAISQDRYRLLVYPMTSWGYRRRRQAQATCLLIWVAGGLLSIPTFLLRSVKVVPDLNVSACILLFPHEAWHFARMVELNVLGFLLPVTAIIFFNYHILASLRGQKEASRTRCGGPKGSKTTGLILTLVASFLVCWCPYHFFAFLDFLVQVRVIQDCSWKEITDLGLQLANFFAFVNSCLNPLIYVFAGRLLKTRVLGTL
Summary of the method: as §1

| Structure (SMILES) | inhibition at 10 µM [1] [%] | inhibition at 10 µM [2] [%] |
| --- | --- | --- |
| Cc1cccc(Cl)c1S(=O)(=O)N1CCCCC1CCCC(=O)N1CCC(OCCN2CCCC2)(c2cccnc2)CC1 (stereo not shown) [Example 9, 4-(1-(2-chloro-6-methylphenylsulfonyl)piperidin-2-yl)-1-(4-(pyridin-3-yl)-4-(2-(pyrrolidin-1-yl)ethoxy)piperidin-1-yl)butan-1-one] | 100 | 102 |
| COc1cc(C)c(S(=O)(=O)N2CCCCC2COCCC(=O)N2CCC(OCCN3CCCC3)(c3cccc(F)c3)CC2)c(C)c1 (stereo not shown) [Example 121, 1-[4-(3-fluorophenyl)-4-(2-pyrrolidin-1-yl-ethoxy)-piperidin-1-yl]-3-[[1-[(4-methoxy-2,6-dimethyl-phenyl)sulfonyl]-piperidin-2-yl]-methoxy]-propan-1-one] | 100 | 99 |
